What all share (type): cell-based
One experiment deals with Enterobacter cloacae. In words: MIC against Gram-negative bacteria: Enterobacter cloacae. The procedure, abridged: (§1)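 LB broth cultures at McFarland 0.5, spun down, resuspended, diluted to 5×10^5 CFU/mL final. Two-fold serial dilutions of purified human EGF domain proteins, triplicate. 37° C, 175 rpm shaking. Endpoint: no visible growth.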
The subject of the next experiment is Aeromonas hydrophila. Kind of experiment: MIC against Gram-negative bacteria: Aeromonas hydrophila. The procedure, abridged: as §1
The next experiment relates to E. coli DH5α. Kind of experiment: Antibacterial activity: MIC and growth curve against E. coli DH5α in 96-well plate. As to conditions: minimal inhibitory concentration against E. coli DH5α; 96-well plate, 5×10^5 CFU/mL, 37° C., judged after 8 h. The procedure, abridged: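 MIC taken as lowest protein level with no bacterial growth, tracked by A600 every 30 min during 37 °C, 175 rpm culture. Two-fold protein series 50-12.5 μg/mL final, triplicate wells, against 5×10^5 CFU/mL of LB-washed mid-log cells.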

Another experiment concerns Proteus vulgaris. Kind of experiment: MIC against Gram-negative bacteria: Proteus vulgaris. The procedure, abridged:
as §1

The subject of another experiment is Proteus mirabilis. In words: MIC against Gram-negative bacteria: Proteus mirabilis. The procedure, abridged: as §1
In another experiment the test system is Pseudomonas aeruginosa. Kind of experiment: MIC against Gram-negative bacteria: Pseudomonas aeruginosa. The procedure, abridged: as §1
The subject of another experiment is E. coli BL21. In words: MIC against Gram-negative bacteria: E. coli BL21. The settings on record: for MIC (μg/mL) E. coli BL21 / MIC: E. coli BL21. The procedure, abridged: as §1
The next experiment deals with Serratia marcescens. In words: MIC against Gram-negative bacteria: Serratia marcescens. The procedure, abridged:
as §1

Another experiment deals with Citrobacter diversus. Kind of experiment: MIC against Gram-negative bacteria: Citrobacter diversus. The procedure, abridged:
as §1

The subject of the next experiment is Moraxella catarrhalis. In words: MIC against Gram-negative bacteria: Moraxella catarrhalis. The procedure, abridged: as §1
The test system of a further experiment is Klebsiella pneumonia. Kind of experiment: MIC against Gram-negative bacteria: Klebsiella pneumonia. The procedure, abridged: as §1
[1] abbreviates: E. cloacae, 10 h cultivation at 37° C., 5×10^5 CFU/mL.
[2] abbreviates: A. hydrophila, 10 h cultivation at 37° C., 5×10^5 CFU/mL.
[3] abbreviates: P. vulgaris, 10 h cultivation at 37° C., 5×10^5 CFU/mL.
Setting [4] is: P. mirabilis, 10 h cultivation at 37° C., 5×10^5 CFU/mL.
Where [5] appears, read: P. aeruginosa, 10 h cultivation at 37° C., 5×10^5 CFU/mL.
The mark [6] stands for this setting: 10 h cultivation at 37° C., 5×10^5 CFU/mL.
[7] abbreviates: S. marcescens, 10 h cultivation at 37° C., 5×10^5 CFU/mL.
Setting [8] is: C. diversus, 10 h cultivation at 37° C., 5×10^5 CFU/mL.
[9] abbreviates: M. catarrhalis, 10 h cultivation at 37° C., 5×10^5 CFU/mL.
Where [10] appears, read: K. pneumonia, 10 h cultivation at 37° C., 5×10^5 CFU/mL.
The mark [11] stands for this setting: E. cloacae, 10 h cultivation at 37° C.
Where [12] appears, read: A. hydrophila, 10 h cultivation at 37° C.
The mark [13] stands for this setting: P. vulgaris, 10 h cultivation at 37° C.
[14] abbreviates: P. mirabilis, 10 h cultivation at 37° C.
Where [15] appears, read: P. aeruginosa, 10 h cultivation at 37° C.
Where [16] appears, read: S. marcescens, 10 h cultivation at 37° C.
Setting [17] is: C. diversus, 10 h cultivation at 37° C.
Setting [18] is: M. catarrhalis, 10 h cultivation at 37° C.
[19] abbreviates: K. pneumonia, 10 h cultivation at 37° C.
[20] abbreviates: 10 h cultivation at 37° C., 5×10^5 CFU/mL, two-fold serial dilution.

These results are taken from patent US9833497B2, “Human originated EGF domain proteins and use of the same” (CHENGDU SOURCEBIO LIMITED-LIABILITY COMPANY, priority 2013, dated 2017).

As usually defined, the MIC is the lowest concentration that inhibits growth of the organism. Regarding “PRT214 (DDNECGNLTQSCGENANCTNTEGSYYCMCVPGFRSSSNQDRFITNDGTVCI; listed as Homo sapiens)”, in the experiment with Enterobacter cloacae (setting [1]), the “MIC (μg/mL) E. cloacae” value came to 12.5 µg/mL. For the same substance, the “MIC (μg/mL) A. hydrophila” value in the experiment on Aeromonas hydrophila (setting [2]) came to 25 µg/mL. The MIC against E. coli DH5α worked out at 12.5 µg/mL. The “MIC (μg/mL) P. vulgaris” value with Proteus vulgaris (setting [3]) worked out at 25 µg/mL. Moreover, the “MIC (μg/mL) P. mirabilis” value in the experiment on Proteus mirabilis (setting [4]) worked out at 12.5 µg/mL. In addition, in the experiment with Pseudomonas aeruginosa (setting [5]), the “MIC (μg/mL) P. aeruginosa” value is 12.5 µg/mL. Further, in the experiment with E. coli BL21 (setting [6]), the “MIC (μg/mL) E. coli BL21” value was 25 µg/mL. For the same substance, the “MIC (μg/mL) S. marcescens” value in the experiment on Serratia marcescens (setting [7]) is 12.5 µg/mL. Moreover, in the experiment on Citrobacter diversus (setting [8]), the “MIC (μg/mL) C. diversus” value came out at 12.5 µg/mL. Moreover, in the experiment on Moraxella catarrhalis (setting [9]), the “MIC (μg/mL) M. catarrhalis” value turned out to be 25 µg/mL. Moreover, the “MIC (μg/mL) K. pneumonia” value in the experiment with Klebsiella pneumonia (setting [10]) came out at 25 µg/mL.
With “PRT117 (DVDECALGRSPCAQGCTNTDGSFHCSCEEGYVLAGEDGTQCQ; listed as Homo sapiens)”, in the experiment with Enterobacter cloacae (Enterobacter cloacae, 96-well plate, 5×10^5 CFU/mL, 37° C., 10 h), the “MIC (μg/mL) E. cloacae” value is 25 µg/mL. In the experiment on Aeromonas hydrophila (Aeromonas hydrophila, 96-well plate, 5×10^5 CFU/mL, 37° C., 10 h), the “MIC (μg/mL) A. hydrophila” value came to 12.5 µg/mL. In the experiment on E. coli DH5α, the MIC was 12.5 µg/mL. For the same substance, in the experiment on Proteus vulgaris (Proteus vulgaris, 96-well plate, 5×10^5 CFU/mL, 37° C., 10 h), the “MIC (μg/mL) P. vulgaris” value amounted to 12.5 µg/mL. Further, the “MIC (μg/mL) P. mirabilis” value against Proteus mirabilis (Proteus mirabilis, 96-well plate, 5×10^5 CFU/mL, 37° C., 10 h) was 25 µg/mL. Moreover, in the experiment on Pseudomonas aeruginosa (Pseudomonas aeruginosa, 96-well plate, 5×10^5 CFU/mL, 37° C., 10 h), the “MIC (μg/mL) P. aeruginosa” value was 25 µg/mL. Also, in the experiment with E. coli BL21 (96-well plate, 5×10^5 CFU/mL, 37° C., 10 h), the “MIC (μg/mL) E. coli BL21” value is 12.5 µg/mL. Also, in the experiment with Serratia marcescens (Serratia marcescens, 96-well plate, 5×10^5 CFU/mL, 37° C., 10 h), the “MIC (μg/mL) S. marcescens” value worked out at 12.5 µg/mL. Besides, the “MIC (μg/mL) C. diversus” value against Citrobacter diversus (Citrobacter diversus, 96-well plate, 5×10^5 CFU/mL, 37° C., 10 h) came out at 25 µg/mL. The “MIC (μg/mL) M. catarrhalis” value in the experiment on Moraxella catarrhalis (Moraxella catarrhalis, 96-well plate, 5×10^5 CFU/mL, 37° C., 10 h) was 12.5 µg/mL. Moreover, the “MIC (μg/mL) K. pneumonia” value in the experiment on Klebsiella pneumonia (Klebsiella pneumonia, 96-well plate, 5×10^5 CFU/mL, 37° C., 10 h) is 12.5 µg/mL.
For “PRT964 (NIDDCASNPCTFGVCRDGINRYDCVCQPGFTGPLCN; listed as Homo sapiens)”, the MIC came out at 12.5 µg/mL in the experiment on Enterobacter cloacae (setting [11]); 25 µg/mL against Aeromonas hydrophila (setting [12]); 12.5 µg/mL with E. coli DH5α; 12.5 µg/mL against Proteus vulgaris (setting [13]); 25 µg/mL with Proteus mirabilis (setting [14]); 50 µg/mL in the experiment on Pseudomonas aeruginosa (setting [15]). The MIC against E. coli BL21 (10 h cultivation at 37° C.) is 25 µg/mL; against Serratia marcescens (setting [16]) it was 50 µg/mL; with Citrobacter diversus (setting [17]) it was 50 µg/mL; in the experiment with Moraxella catarrhalis (setting [18]) it was 25 µg/mL; in the experiment on Klebsiella pneumonia (setting [19]), 25 µg/mL.
“PRT968 (LEDPCHSGPCAGRGVCQSSVVAGTARFSCRCPRGFRGPDCS; listed as Homo sapiens)”: the MIC against Enterobacter cloacae (setting [11]) was 25 µg/mL; against Aeromonas hydrophila (setting [12]), 25 µg/mL; against E. coli DH5α it was 25 µg/mL; against Proteus vulgaris (setting [13]) it was 25 µg/mL; against Proteus mirabilis (setting [14]), 50 µg/mL; in the experiment on Pseudomonas aeruginosa (setting [15]), 25 µg/mL. Further, the MIC against E. coli BL21 (10 h cultivation at 37° C.) amounted to 12.5 µg/mL; against Serratia marcescens (setting [16]), 12.5 µg/mL; in the experiment with Citrobacter diversus (setting [17]) it was 12.5 µg/mL; against Moraxella catarrhalis (setting [18]), 25 µg/mL; with Klebsiella pneumonia (setting [19]), 12.5 µg/mL.
Regarding “PRT164 (YKDPCANVSCLNGATCDSDGLNGTCICAPGFTGEECD; listed as Homo sapiens)”, in the experiment on Enterobacter cloacae (setting [1]), the “MIC (μg/mL) E. cloacae” value amounted to 25 µg/mL. Besides, the “MIC (μg/mL) A. hydrophila” value against Aeromonas hydrophila (setting [2]) turned out to be 50 µg/mL. In the experiment on E. coli DH5α, the MIC is 25 µg/mL. The “MIC (μg/mL) P. vulgaris” value in the experiment on Proteus vulgaris (setting [3]) came out at 50 µg/mL. Moreover, the “MIC (μg/mL) P. mirabilis” value with Proteus mirabilis (setting [4]) came to 12.5 µg/mL. In addition, the “MIC (μg/mL) P. aeruginosa” value with Pseudomonas aeruginosa (setting [5]) came out at 25 µg/mL. Moreover, the “MIC (μg/mL) E. coli BL21” value against E. coli BL21 (setting [6]) was found to be 50 µg/mL. For the same substance, in the experiment with Serratia marcescens (setting [7]), the “MIC (μg/mL) S. marcescens” value turned out to be 12.5 µg/mL. Also, the “MIC (μg/mL) C. diversus” value in the experiment on Citrobacter diversus (setting [8]) is 12.5 µg/mL. For the same substance, the “MIC (μg/mL) M. catarrhalis” value with Moraxella catarrhalis (setting [9]) amounted to 50 µg/mL. Besides, the “MIC (μg/mL) K. pneumonia” value in the experiment on Klebsiella pneumonia (setting [10]) came to 12.5 µg/mL.
With “PRT1153 (TVSTCDPEHDPPHHCSRGATCISLPHGYTCFCPLGTTGIYCE; listed as Homo sapiens)”, the “MIC E. cloacae” value against Enterobacter cloacae (setting [20]) was found to be 12.5 µg/mL. Besides, the “MIC A. hydrophila” value in the experiment with Aeromonas hydrophila (setting [20]) turned out to be 50 µg/mL. Besides, the MIC in the experiment on E. coli DH5α was 12.5 µg/mL. The “MIC P. vulgaris” value against Proteus vulgaris (setting [20]) is 50 µg/mL. Moreover, in the experiment with Proteus mirabilis (setting [20]), the “MIC P. mirabilis” value was 25 µg/mL. Further, the “MIC P. aeruginosa” value against Pseudomonas aeruginosa (setting [20]) was determined as 12.5 µg/mL. The “MIC E. coli BL21” value against E. coli BL21 (setting [20]) was found to be 50 µg/mL. Also, in the experiment on Serratia marcescens (setting [20]), the “MIC S. marcescens” value came out at 12.5 µg/mL. Further, the “MIC C. diversus” value against Citrobacter diversus (setting [20]) turned out to be 25 µg/mL. Also, in the experiment with Moraxella catarrhalis (setting [20]), the “MIC M. catarrhalis” value stood at 12.5 µg/mL. Besides, the “MIC K. pneumonia” value in the experiment on Klebsiella pneumonia (setting [20]) came to 50 µg/mL.
